Assay [1] concerns GAL4RXR + VP16CfEcR. Description: Transactivation of reporter genes through switch 1.3 in CHO cells. Format: cell-based, Choristoneura fumiferana. The note with it: switch 1.3 GAL4RXR + VP16CfEcR, pGAL4RELuc. As for the experimental part:
(§1) The cells were harvested and reporter activity was assayed.
(§2) Cells were harvested 24-48 hr after adding ligands. […] Twenty μl of lysate was assayed.

Assay [2] has as its system GAL4EcR + VP16USP. In words: Transactivation of reporter genes through switch 1.2 in CHO cells. Format: cell-based, Choristoneura fumiferana. To be noted: switch 1.2 GAL4EcR + VP16USP, pGAL4RELuc. The protocol: (§3) This construct was prepared in the same way as in switch 1.1 above except MmRXRDEF was replaced with the D, E and F domains from spruce budworm USP (“CfUSPDEF”; SEQ ID NO: 58). The constructs used in this example are similar to those disclosed in U.S. Pat. No. 5,880,333 except that Choristoneura fumiferana USP rather than Drosophila melanogaster USP was utilized.
as §1, §2

For assay [3], the system named is CfVgRXR + MmRXR. In words: Transactivation of reporter genes through switch 1.9 in 3T3 cells. Type of assay: cell-based, Choristoneura fumiferana. The note with it: switch 1.9 CfVgRXR + MmRXR, pIND(SP1)LacZ. The protocol: This example was prepared in the same way as switch 1.8 except DinEcR was replaced with a truncated CfEcR comprising a partial A/B domain and the complete CDEF domains [SEQ ID NO: 62 (polynucleotide) and SEQ ID NO: 63 (polypeptide)].
(§4) The cells were plated when they reached 50% confluency.
as §2

Assay [4] concerns the target T1, DmVgRXR + MmRXR (Drosophila melanogaster, UniProt P34021, E282G/G283S/G286V).
T1 construct: host or cells: CHO, NIH3T3, 293 or CV1 cells (one cell line per assay)
In words: Transactivation of reporter genes through switch 1.8 in CV1 cells. Format: cell-based. The note with it: switch 1.8 DmVgRXR + MmRXR, pIND(SP1)LacZ.
Description: (§5) This system was purchased from Invitrogen Corp., Carlsbad, Calif. It comprises a Drosophila melanogaster EcR (“DmEcR”) with a modified DNABD fused to VP16AD and placed under the control of a CMV promoter (SEQ ID NO: 60). Full length MmRXR (SEQ ID NO: 53) was placed under the control of the RSV promoter (SEQ ID NO: 61). The reporter, pIND(SP1)LacZ, contains five copies of a modified ecdysone response element (“EcRE”, E/GRE), three copies of an SP1 enhancer, and a minimal heat shock promoter, all of which were placed upstream to the LacZ reporter gene.
(§6) The same procedures described for NIH3T3 cells were followed for CV1 cells
as §2

Assay [5] concerns the target T1, DmVgRXR + MmRXR. Description: Transactivation of reporter genes through switch 1.8 in 293 cells. Format: cell-based. The note with it: switch 1.8 DmVgRXR + MmRXR, pIND(SP1)LacZ.
Description: as §5
(§7) The same procedures described for CHO were followed for 293 cells except that the cells were plated in biocoated plates to avoid clumping.
as §2

Assay [6] has as its system GAL4EcR + VP16RXR. In words: Transactivation of reporter genes through switch 1.1 in CV1 cells. Type of assay: cell-based, Choristoneura fumiferana. The note with it: switch 1.1 GAL4EcR + VP16RXR, pGAL4RELuc. The protocol: as §6, §2
The target in assay [7] is T1, DmVgRXR + MmRXR. Description: Transactivation of reporter genes through switch 1.8 in 3T3 cells. Type of assay: cell-based. To be noted: switch 1.8 DmVgRXR + MmRXR, pIND(SP1)LacZ.
Description: as §5, §4, §2

Assay [8] concerns the target T1, DmVgRXR + MmRXR. Description: Transactivation of reporter genes through switch 1.8 in CHO cells. The note with it: switch 1.8 DmVgRXR + MmRXR, pIND(SP1)LacZ. Format: cell-based.
Description: as §5, §1, §2

Assay [9] has as its system GAL4EcR + VP16USP. Description: Transactivation of reporter genes through switch 1.2 in 293 cells. Type of assay: cell-based, Choristoneura fumiferana. The note with it: switch 1.2 GAL4EcR + VP16USP, pGAL4RELuc. The protocol: as §3, §7, §2
The target in assay [10] is T2, GAL4RXR + VP16DmEcR (Drosophila melanogaster, UniProt P34021).
T2 sequence (P34021 254-878): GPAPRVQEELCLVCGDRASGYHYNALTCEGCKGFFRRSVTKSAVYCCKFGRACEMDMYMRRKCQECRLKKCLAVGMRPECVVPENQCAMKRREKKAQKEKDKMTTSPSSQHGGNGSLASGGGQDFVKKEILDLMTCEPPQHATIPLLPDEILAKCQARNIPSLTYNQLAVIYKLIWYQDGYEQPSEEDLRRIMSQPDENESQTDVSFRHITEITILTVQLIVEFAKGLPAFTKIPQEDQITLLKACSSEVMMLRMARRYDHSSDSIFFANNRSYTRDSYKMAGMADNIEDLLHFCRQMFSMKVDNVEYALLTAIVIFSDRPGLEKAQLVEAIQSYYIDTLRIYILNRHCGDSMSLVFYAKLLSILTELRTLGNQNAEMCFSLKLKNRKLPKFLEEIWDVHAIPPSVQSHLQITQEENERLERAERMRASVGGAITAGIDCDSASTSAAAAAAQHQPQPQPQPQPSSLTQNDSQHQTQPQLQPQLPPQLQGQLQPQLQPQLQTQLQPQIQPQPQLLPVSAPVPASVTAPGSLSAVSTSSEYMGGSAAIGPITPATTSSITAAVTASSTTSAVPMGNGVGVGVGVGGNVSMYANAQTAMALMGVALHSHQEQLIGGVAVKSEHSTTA
T2 sequence (P28700 206-467 partner limits assumed): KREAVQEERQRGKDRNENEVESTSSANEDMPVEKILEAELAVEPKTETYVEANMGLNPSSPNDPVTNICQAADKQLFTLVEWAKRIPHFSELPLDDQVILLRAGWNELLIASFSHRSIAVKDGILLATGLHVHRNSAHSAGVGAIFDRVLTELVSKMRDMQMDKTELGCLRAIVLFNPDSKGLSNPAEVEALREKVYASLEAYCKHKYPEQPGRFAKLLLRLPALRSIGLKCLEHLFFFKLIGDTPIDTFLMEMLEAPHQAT
Description: Transactivation of reporter genes through switch 1.4 in CV1 cells. Type of assay: cell-based. Also noted: expressed in transfected cells; host or cells: CV1 cells (transient co-transfection). To be noted: switch 1.4 GAL4RXR + VP16DmEcR, pGAL4RELuc. As for the experimental part: This construct was prepared in the same way as switch 1.3 except CfEcRCDEF was replaced with DmEcRCDEF (SEQ ID NO: 6).
as §6, §2

Assay [11] relates to GAL4RXR + VP16CfEcR. In words: Transactivation of reporter genes through switch 1.3 in 293 cells. Format: cell-based, Choristoneura fumiferana. To be noted: switch 1.3 GAL4RXR + VP16CfEcR, pGAL4RELuc. As for the experimental part:
as §7, §2

T1 sequence (P34021 whole entry E282G/G283S/G286V): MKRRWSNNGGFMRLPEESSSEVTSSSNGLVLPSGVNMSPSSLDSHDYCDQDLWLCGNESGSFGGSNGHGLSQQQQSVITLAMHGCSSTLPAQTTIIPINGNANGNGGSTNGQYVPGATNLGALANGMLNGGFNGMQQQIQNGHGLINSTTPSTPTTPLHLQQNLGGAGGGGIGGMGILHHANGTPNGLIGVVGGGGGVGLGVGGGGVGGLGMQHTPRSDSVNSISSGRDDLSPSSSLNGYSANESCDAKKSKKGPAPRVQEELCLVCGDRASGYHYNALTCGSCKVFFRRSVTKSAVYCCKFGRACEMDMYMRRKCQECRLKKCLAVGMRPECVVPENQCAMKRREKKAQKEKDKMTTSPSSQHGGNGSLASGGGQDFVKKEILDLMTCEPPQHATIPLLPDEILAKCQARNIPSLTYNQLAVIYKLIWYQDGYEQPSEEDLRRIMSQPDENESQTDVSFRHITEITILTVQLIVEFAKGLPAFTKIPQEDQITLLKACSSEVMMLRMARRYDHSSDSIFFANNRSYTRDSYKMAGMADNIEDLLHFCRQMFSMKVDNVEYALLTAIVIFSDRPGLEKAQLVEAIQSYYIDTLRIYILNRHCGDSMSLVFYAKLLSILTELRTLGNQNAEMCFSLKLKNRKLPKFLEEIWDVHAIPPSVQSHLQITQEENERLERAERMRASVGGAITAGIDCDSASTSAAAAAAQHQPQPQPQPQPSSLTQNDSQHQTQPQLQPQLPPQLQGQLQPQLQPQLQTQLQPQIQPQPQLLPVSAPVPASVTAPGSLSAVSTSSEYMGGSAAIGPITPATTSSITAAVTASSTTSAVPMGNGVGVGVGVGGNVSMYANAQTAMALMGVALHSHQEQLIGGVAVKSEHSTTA
T1 sequence (P28700 whole entry, further chain): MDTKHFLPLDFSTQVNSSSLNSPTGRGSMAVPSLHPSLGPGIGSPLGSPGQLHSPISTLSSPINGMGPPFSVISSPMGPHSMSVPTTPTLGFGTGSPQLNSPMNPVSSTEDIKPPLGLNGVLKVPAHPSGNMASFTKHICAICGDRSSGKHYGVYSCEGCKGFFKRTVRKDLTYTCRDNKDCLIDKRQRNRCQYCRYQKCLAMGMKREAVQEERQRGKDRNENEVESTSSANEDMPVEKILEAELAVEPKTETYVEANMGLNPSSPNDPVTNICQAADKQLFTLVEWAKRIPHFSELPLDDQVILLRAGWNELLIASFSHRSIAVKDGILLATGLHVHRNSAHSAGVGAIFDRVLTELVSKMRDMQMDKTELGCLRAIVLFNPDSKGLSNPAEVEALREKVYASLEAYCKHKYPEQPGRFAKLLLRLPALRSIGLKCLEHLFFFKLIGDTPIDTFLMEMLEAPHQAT

For the compound `CCc1c(OC)cccc1C(=O)NN(C(=O)c1cc(C)cc(C)c1)C(C)(C)C` [N-(2-ethyl-3-methoxybenzoyl)-N′-(3,5-dimethylbenzoyl)-N′-tert-butylhydrazine], the “Mean Fold Activation with 50 μM N-(2-ethyl-3-methoxybenzoyl)-N′-(3,5-dimethylbenzoyl)-N′-t-butylhydrazine” value in [1] worked out at 85 fold; in assay [2], 2 fold; in assay [8], 14 fold. For the same compound, the “Mean Fold Activation Through N-(2-ethyl-3-methoxybenzoyl)-N′-(3,5-dimethylbenzoyl)-N′-t-butylhydrazine” value in assay [3] was 19 fold; in [4], 12 fold; in assay [5] it was 21 fold; in [6], 279 fold; in [7] it was 21 fold; in assay [9], 2 fold. Also, the “Mean Fold Activation Through N-(2-ethyl-3-methoxybenzoyl)-N′-(3,5-dimethylbenzoyl)-N′-t-butylhydrazine” value turned out to be 80 fold in assay [10] and 17 fold in assay [11].

For the origin of these results see patent publication US8822754B2, “Ecdysone receptor-based inducible gene expression system” (Intrexon Corporation, priority 2000, dated 2014).
